Experimental data: article PMC5833389 (Oncogenesis, 2018)

Legend:
[1] = tested on: PC-3 cells; assay: Proliferation assay, adherent monolayer, alamarBlue; type: cell-based, human; conditions: adherent monolayers
Method: PC-3 cells were incubated with compounds for 5 days at 37 °C/5% CO2, stained with alamarBlue® and fluorescence was determined (544 nm/590 nm). Data were analyzed as described above.

[2] = tested on: PC-3 cells; assay: Clonogenic assay in soft agar (anchorage-independent growth); type: cell-based, human; conditions: alamarBlue, read-out: Colony formation EC50 PC-3
Method: Clonogenic assays were performed using agarose-containing media. Cells were incubated at 37 °C and 5% CO2 for 14 days. alamarBlue® was used to detect colonies of viable cells (530 nm/590 nm). Data analysis was performed as described above.

## CN(c1ncccc1CNc1nc(Nc2ccc3c(c2)CC(=O)N3)ncc1C(F)(F)F)S(C)(=O)=O [PF-562,271, reference compound]
[1]
  EC50: 1650 nM
[2]
  EC50: 42 nM
